These results are taken from patent US10023839B2, “Anti-tumour vaccine derived from normal cells” (Cytovac A/S, priority 2007, dated 2018).

For this assay, the system named is cancer/testis antigens (MAGE-A1, -A3, -A4, -A6, -A10, -A12, NY-ESO-1, GAGE-3-7, BORIS) in proliferating lymphocytes. Kind of assay: RT-PCR analysis of cancer/testis antigen expression in 5-Aza-CdR-treated proliferating lymphocytes.

In the case of `Nc1ncn([C@H]2C[C@H](O)[C@@H](CO)O2)c(=O)n1` [Culture 5-Aza-CdR, 5-Aza-2′-deoxycytidine], the “induction of CTA expression (RT-PCR)” value (10 μM 5-aza-2′-deoxycytidine, 150 IU/ml IL-2, 3 days, lymphocytes expanded with autologous mature dendritic cells) is given as “all the investigated antigens are present in the induced lymphocytes”. Moreover, the “CTA expression, cultures from log phase of growth (day 8) versus plateau (day 10)” value (10 μM 5-aza-2′-deoxycytidine, 3 days) is recorded as “higher expression in cultures taken from log phase of growth”. Where the note is “preliminary experiments on kinetics and concentration dependence (not shown)”, the “most easily inducible CTA” value was “MAGE-A1, MAGE-A4 and MAGE-A12”.
